{"source": "patent US12252701B2", "about": "“Chimeric antigen receptor T cell therapy” (KITE PHARMA, INC., priority 2020, dated 2025)", "key": {"[1]": {"experiment": "Clinical pharmacokinetic data converted to in vitro concentrations", "settings": "human, in vivo", "description": "Given the different potencies of the JAK inhibitors and different pharmacokinetic properties for each drug, it was sought to test each drug at a relevant range of physiological concentrations based on clinical dosing and reported pharmacokinetic data from repeat dose studies. Reported Cmax values in patient sera were converted to in vitro concentrations and adjusted for reported plasma protein binding."}, "[2]": {"test_system": "NALM6.GFP.LUC.CD19 target cells", "experiment": "Serial killing assay", "format": "cell-based, human", "experimental": "CD19 CAR-T cells were thawed in RPMI media supplemented with HEPES, Penicillin/Streptomycin/L-Glutamine and 10% FBS and rested overnight. The following day, drugs were serially diluted and prepared in 96-well plates. Rested T cells were counted and normalized so that 25,000 or 8,333 T cells were plated with 25,000 NALM6.GFP.LUC.CD19 target cells (1:1 or 1:3 Effector:Target ratio) in the prepared 96-well plates. At 16 hour post-incubation and every 3-4 days, T cell killing of targets was measured via luciferase detection. D-luciferin substrate was added to the co-culture wells at a final concentration of 0.14 mg/mL and plates were incubated at 37° C. in the dark for 10 minutes. Luminescent signal was read immediately after in a VarioSkan™ LUX microplate reader. T cell-mediated cytotoxicity was calculated as follows: % Cytotoxicity=[1−luciferase signal of (sample of interest/target alone control)]*100. Afterwards, co-cultures were stained with LIVE/DEAD and antibodies against CD4, CD8 and KIP-1 and then washed. Cells were then analyzed and quantified via the Attune NxT flow cytometer. T cells were then repeatedly stimulated with fresh 25,000 target cells, and this process was repeated every 3-4 days."}, "[3]": {"test_system": "phospho-STAT-1, -3 and -5 in purified CD14+ monocytes", "experiment": "Intracellular phospho-STAT-1, -3, -5 by BD PhosphoFlow in purified monocytes", "format": "cell-based, human", "settings": "for Monocyte-specific pSTAT1 signaling, inhibition / Monocyte-specific pSTAT3 signaling, inhibition / Monocyte-specific pSTAT5 signaling, inhibition: purified CD14+ monocytes", "experimental": "(§1) Further experiments were performed to look at impacts of JAK inhibitors on STAT phosphorylation in various immune cell subsets."}, "[4]": {"test_system": "phospho-STAT-1, -3 and -5 in CD4, CD8 T cells and monocytes (CAR T product, PBMCs)", "experiment": "Intracellular phospho-STAT-1, -3, -5 by flow cytometry in immune cell subsets of CAR T product and PBMCs", "format": "cell-based, human", "experimental": "as §1"}, "[5]": {"settings": "cited from earlier work"}, "CAR-T cells": {"test_system": "CAR-T cells", "experiment": "CAR-T cell expansion assay (KIP-1 or CD3/CD28 stimulation)"}, "[6]": {"settings": "E:T ratio 1:3, all doses tested"}, "[7]": {"settings": "CAR T cell-derived supernatant, 30 min"}, "[8]": {"settings": "purified monocytes, CAR T derived cytokines/supernatant stimulation, 30 min"}}, "data": [{"smiles": "Nc1nc2cccc(-c3ccc(CN4CCS(=O)(=O)CC4)cc3)n2n1", "note": "[GS-829845]", "values": [{"measurement": "clinically relevant dose level (in vitro concentration)", "setting": "[1]", "result": "~4", "unit": "µM"}, {"measurement": "T-cell counts", "setting": "[2]; E:T ratio 1:1", "result": "increased T-cell counts in a dose-dependent manner"}, {"measurement": "serial killing", "setting": "[2]; E:T ratio 1:1", "result": "enhanced serial killing"}, {"measurement": "T-cell counts", "setting": "[2]; [6]", "result": "no negative impacts were observed"}, {"measurement": "serial killing", "setting": "[2]; [6]", "result": "no negative impacts"}, {"measurement": "Monocyte-specific pSTAT1 signaling, inhibition", "setting": "[3]; [7]", "result": 32, "unit": "%"}, {"measurement": "Monocyte-specific pSTAT3 signaling, inhibition", "setting": "[3]; [7]", "result": 80, "unit": "%"}, {"measurement": "Monocyte-specific pSTAT5 signaling, inhibition", "setting": "[3]; [7]", "result": 3, "unit": "%"}, {"measurement": "Monocyte-specific pSTAT1 signaling, inhibition", "setting": "[3]; rh-GM-CSF-induced", "result": "na/ni"}, {"measurement": "Monocyte-specific pSTAT3 signaling, inhibition", "setting": "[3]; rh-GM-CSF-induced", "result": "na/ni"}, {"measurement": "Monocyte-specific pSTAT5 signaling, inhibition", "setting": "[3]; rh-GM-CSF-induced", "result": 0, "unit": "%"}, {"measurement": "Monocyte-specific pSTAT1 signaling, inhibition", "setting": "[3]; rhIFNg-induced", "result": 61, "unit": "%"}, {"measurement": "Monocyte-specific pSTAT3 signaling, inhibition", "setting": "[3]; rhIFNg-induced", "result": 100, "unit": "%"}, {"measurement": "Monocyte-specific pSTAT5 signaling, inhibition", "setting": "[3]; rhIFNg-induced", "result": 100, "unit": "%"}, {"measurement": "Monocyte-specific pSTAT1 signaling, inhibition", "setting": "[3]; rhIL6-induced", "result": "na/ni"}, {"measurement": "Monocyte-specific pSTAT3 signaling, inhibition", "setting": "[3]; rhIL6-induced", "result": 33, "unit": "%"}, {"measurement": "Monocyte-specific pSTAT5 signaling, inhibition", "setting": "[3]; rhIL6-induced", "result": "na/ni"}, {"measurement": "pSTAT1 inhibition", "setting": "[3]; [8]", "result": 32, "unit": "%"}, {"measurement": "pSTAT3 inhibition", "setting": "[3]; [8]", "result": 80, "unit": "%"}, {"measurement": "Primary Cell IL-6 pSTAT1 signaling (% inhibition)", "setting": "[4]; CD4 CART cells", "result": 18, "unit": "%"}, {"measurement": "Primary Cell IL-6 pSTAT3 signaling (% inhibition)", "setting": "[4]; CD4 CART cells", "result": 6, "unit": "%"}, {"measurement": "Primary Cell IL-6 pSTAT5 signaling (% inhibition)", "setting": "[4]; CD4 CART cells", "result": 29, "unit": "%"}, {"measurement": "Primary Cell IL-6 pSTAT1 signaling (% inhibition)", "setting": "[4]; CD8 CART cells", "result": 11, "unit": "%"}, {"measurement": "Primary Cell IL-6 pSTAT3 signaling (% inhibition)", "setting": "[4]; CD8 CART cells", "result": 2, "unit": "%"}, {"measurement": "Primary Cell IL-6 pSTAT5 signaling (% inhibition)", "setting": "[4]; CD8 CART cells", "result": 17, "unit": "%"}, {"measurement": "effect on phosphorylated-STAT-1, -STAT-3 and -STAT5 levels", "setting": "[4]; IL-6 stimulation", "result": "only a fraction of the filgotinib suppression levels"}, {"measurement": "Primary cell GM-CSF-pSTAT5, inhibition", "setting": "[4]; Monocytes within bulk PBMCs", "result": 3, "unit": "%"}, {"measurement": "Primary Cell IL-6 pSTAT1 signaling (% inhibition)", "setting": "[4]; PBMC CD4 T cells", "result": 25, "unit": "%"}, {"measurement": "Primary Cell IL-6 pSTAT3 signaling (% inhibition)", "setting": "[4]; PBMC CD4 T cells", "result": 15, "unit": "%"}, {"measurement": "Primary Cell IL-6 pSTAT5 signaling (% inhibition)", "setting": "[4]; PBMC CD4 T cells", "result": 36, "unit": "%"}, {"measurement": "Primary Cell IL-6 pSTAT1 signaling (% inhibition)", "setting": "[4]; PBMC CD8 T cells", "result": 10, "unit": "%"}, {"measurement": "Primary Cell IL-6 pSTAT3 signaling (% inhibition)", "setting": "[4]; PBMC CD8 T cells", "result": 11, "unit": "%"}, {"measurement": "Primary Cell IL-6 pSTAT5 signaling (% inhibition)", "setting": "[4]; PBMC CD8 T cells", "result": 24, "unit": "%"}, {"measurement": "Primary Cell IL-6 pSTAT1 signaling (% inhibition)", "setting": "[4]; PBMC Monocytes", "result": 24, "unit": "%"}, {"measurement": "Primary Cell IL-6 pSTAT3 signaling (% inhibition)", "setting": "[4]; PBMC Monocytes", "result": 17, "unit": "%"}, {"measurement": "Primary Cell IL-6 pSTAT5 signaling (% inhibition)", "setting": "[4]; PBMC Monocytes", "result": 21, "unit": "%"}, {"measurement": "Primary cell GM-CSF-pSTAT5, inhibition", "setting": "[4]; T cells within bulk PBMCs", "result": 16, "unit": "%"}, {"measurement": "Cmax", "setting": "[5]; clinical dosing, patient sera, repeat dose studies", "result": 3540, "unit": "ng/mL"}, {"measurement": "Protein binding", "setting": "[5]; plasma protein binding, reported", "result": "~58", "unit": "%"}, {"measurement": "% viability", "setting": "CAR-T cells; CD3/CD28, dose 1000 nM, day 0", "result": 75, "unit": "%"}, {"measurement": "% viability", "setting": "CAR-T cells; CD3/CD28, dose 1000 nM, day 4", "result": 55.6, "unit": "%"}, {"measurement": "% viability", "setting": "CAR-T cells; CD3/CD28, dose 1000 nM, day 8", "result": 76.2, "unit": "%"}, {"measurement": "% viability", "setting": "CAR-T cells; CD3/CD28, dose 1000 nM, day 12", "result": 88.9, "unit": "%"}, {"measurement": "% viability", "setting": "CAR-T cells; CD3/CD28, dose 5000 nM, day 0", "result": 75, "unit": "%"}, {"measurement": "% viability", "setting": "CAR-T cells; CD3/CD28, dose 5000 nM, day 4", "result": 56.5, "unit": "%"}, {"measurement": "% viability", "setting": "CAR-T cells; CD3/CD28, dose 5000 nM, day 8", "result": 75.6, "unit": "%"}, {"measurement": "% viability", "setting": "CAR-T cells; CD3/CD28, dose 5000 nM, day 12", "result": 88.8, "unit": "%"}, {"measurement": "% viability", "setting": "CAR-T cells; KIP-1, dose 1000 nM, day 0", "result": 75, "unit": "%"}]}]}
